Test results published in patent US9127016B2, “Small molecule inhibitors of Dusp6 and uses therefor” (University of Pittsburgh—Of the Commonwealth System of …, priority 2009, dated 2015).

Legend:
[1] = tested on: zebrafish embryo; assay: Zebrafish embryo survival after prolonged exposure; type: in vivo
Procedure: We next addressed if BCI and related analogs are detrimental to zebrafish embryo survival after prolong exposure. […] The percentage of embryos that died after 24 hours treatment was 100% at 20 μM.

[2] = tested on: FGF target genes; assay: Whole mount in situ hybridization of FGF target genes in treated embryos; type: in vivo, zebrafish
Procedure: In situ hybridization experiments were carried out as described previously (Kudoh, T. et al. Genome Res 11, 1979-87 (2001)). The probes eng3, krox20, sef, dusp6, gata4, nkx2.5, cmlc2, vmhc, scl, etsrp and hand2 were generated with a RNA labeling kit (Roche) (Tsang, M. et al. Development 131, 2769-79 (2004); Chen, J. N. et al. Development 122, 3809-16 (1996); Ekker, M., et al. Development 116, 1001-10 (1992); Liao, E. C. et al. Genes Dev 12, 621-6 (1998); Oxtoby, E. et al. Nucleic Acids Res 21, 1087-95 (1993); Pham, V. N. et al. Dev Biol 303, 772-83 (2007); Tsang, M., et al. Nat Cell Biol 4, 165-9 (2002); Yelon, D., et al. Dev Biol 214, 23-37 (1999); and Yelon, D. et al. Development 127, 2573-82 (2000)). The double fluorescent in situ hybridization protocol was described by Schoenbeck et al. (Dev Cell 13, 254-67 (2007)). Fluorescent in situ hybridizations were visualized by confocal microscopy. Single optical sections and z-series of flat-mounted stained embryos were collected with a confocal laser scan head (SP5, Leica Microsystems, Inc.) mounted on an inverted compound microscope (DM16000, Leica Microsystems, Inc.). Images were scanned and compiled with NIH ImageJ software (rsb.info.nih.gov/ij/).
We previously described the generation of a transgenic zebrafish line, (Tg(Dusp6:d2EGFP)pt6) that expresses destabilized green fluorescent protein (d2EGFP) under the control of FGF signaling (Molina, G. A., et al. BMC Dev Biol 7, 62 (2007)). […] Five transgenic embryos at 24 hours post fertilization (hpf) were arrayed into each well of a 96-well plate containing test compounds at 10 μM. d2EGFP intensity in treated embryos was visually analyzed and compared to vehicle control (0.5% DMSO) after 6-8 hours. […] To confirm that BCI hyperactivated FGF signaling, we treated embryos prior to gastrulation (5 hpf), and we analyzed by whole mount in situ hybridization, the expression of ntl (zebrafish brachyury), a known FGF target gene (Latinkic, B. V. et al. Genes Dev 11, 3265-76 (1997)). […] We next determined the BCI structural features required to enhance FGF signaling. […]

[3] = target: T1, Dusp6 (Homo sapiens, UniProt Q16828); assay: Basal Dusp6 dephosphorylation of OMFP; type: biochemical; set-up: His; made in house; conditions: 100 μM
T1 sequence (Q16828 1-381): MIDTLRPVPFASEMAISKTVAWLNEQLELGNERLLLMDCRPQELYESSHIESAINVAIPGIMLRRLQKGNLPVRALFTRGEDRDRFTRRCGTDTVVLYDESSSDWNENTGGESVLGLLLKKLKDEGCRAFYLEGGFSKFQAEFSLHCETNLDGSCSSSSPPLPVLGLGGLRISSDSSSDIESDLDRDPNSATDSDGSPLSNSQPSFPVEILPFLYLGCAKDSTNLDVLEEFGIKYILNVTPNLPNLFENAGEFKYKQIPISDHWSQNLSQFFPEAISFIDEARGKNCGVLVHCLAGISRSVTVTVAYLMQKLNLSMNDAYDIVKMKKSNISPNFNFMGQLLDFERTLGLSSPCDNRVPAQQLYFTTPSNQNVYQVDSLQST
Procedure: For OMFP based ERK2 induced activation of Dusp6, recombinant His-tagged Dusp6 was expressed from a bacterial expression vector and 250 ng were incubated with the indicated concentrations of NSC95397 or BCI. OMFP was added at its apparent Km (100 μM) (Vogt, A. et al. J Biol Chem 280, 19078-86 (2005)). The final reaction volume was 15 μl. After 1 h at RT, OMF fluorescence was measured on an M5 multimode reader (Molecular Devices) at excitation/emission wavelengths of 485/525 nm. To assay activated Dusp6, 210 ng or 2.1 μg of recombinant ERK2 (Cell signaling) were added to Dusp6(210 ng)/BCI(100 μM) mixtures to measure activation at 1:1 and 1:10 ratio of substrate to enzyme. OMFP was immediately added and fluorescence (ex485/em525 nm) was read every 10 min for 130 min. Fold activation was calculated at 60 mins in each experiment.

O=C1/C(=C/c2ccccc2)C(NC2CCCCC2)c2ccccc21 (stereo not drawn) [Compound 3, (E)-2-benzylidene-3-(cyclohexylamino)-2,3-dihydro-1H-inden-1-one]
percentage of embryos that died after 24 hours treatment ([1]; 20 μM, 24 hours): 100% | effect of prolonged exposure on embryos ([1]; high doses (>10 μM) for 24 hours): embryo defects, such as tail necrosis and even death | expression of ntl ([2]; treated prior to gastrulation (5 hpf), 6-somite stage): greatly expanded | expression of engrailed3 (eng3) and krox20 ([2]; treatment during somitogenesis): increased expression | expression of dusp6 ([2]; treatment from the 1- to 10-somite stage): marked increase | inhibition of basal Dusp6 activity toward OMFP [3]: did not inhibit basal Dusp6 activity
